# Laboratory results reported in patent US20230097157A1, “Bicyclic Pyridin-2-one and pyrimidin-4-one Derivatives Useful As a Factor XIa Inhibitors” (Janssen Pharmaceutica NV, priority 2021, published 2023).
# Like-named read-outs stand apart in the source and are kept apart here.
# Experiments:
# Factor XIa = Factor XIa (Homo sapiens, UniProt P03951); experiment: Factor XIa inhibition assay (FLINT) utilizing a fluorophore-quencher pair peptide substrate 5Fam-[…]-K5Tamra; format: biochemical; settings: kinetic (KIN) reads; values in nM; read-out: FXIa KIN Inh IC50
# Source text: Biological Example 1: Factor XIa Inhibition Assay Utilizing a Fluorophore-Quencher Pair Peptide Substrate A fluorescence intensity (FLINT) based assay was used to monitor inhibition of Factor XIa. The peptide substrate, 5Fam-[…]-K5Tamra (purchased from New England Peptide) was chosen based on the FXI sequence. Conversion of zymogen FXI to its activated form, FXIa, occurs by proteolytic cleavage by […] at two sites, Arg146 and Arg180. The custom peptide used in this assay was based on the Arg146 cleavage site of FXI. The peptide substrate was designed with a fluorophore-quencher pair, where the fluorescence is quenched until FXIa cleaves the 8-mer peptide after the Arg residue.
# The Factor XIa FLINT assay was used with the following 5Fam-[…]-K5Tamra assay buffer: 50 mM Tris, pH 7.5, 100 mM NaCl, 5 mM CaCl2, 0.1 mg/mL BSA, 0.03% CHAPS. Assay buffer was prepared by mixing all ingredients fresh. 5Fam-[…]-K5Tamra peptide substrate was first prepared at 10 mM in 100% DMSO, then diluted to 3 mM in 100% DMSO. Assay buffer was then added directly to the 3 mM stock of substrate to prepare the 30 μM 2× working concentration (15 μM final concentration). The 2× Factor XIa stock solution was prepared by diluting 6.562 μM stock in 1× assay buffer for a […].
# Test compound(s) were run in an 11-point, 3-fold serial dilution with a final top compound concentration of 100 nM. Final DMSO in assay was 2%. FXIa was preincubated with compound for 30-minutes and then substrate was added to initiate the reaction. The assay was run with kinetic (KIN) reads at 5 min intervals over 30 minutes. […] More specifically, the assay was run as follows: • 100 nL of 0.01 mM test compound was dispensed into black 384-well non-binding Greiner BioOne 784900 plate for 0.1 μM final concentration; • 5 μL of 1× assay buffer was dispensed to column 24 (low control) and 5 μL 2× Factor XIa solution was dispensed to columns 1-23 (column 23 high control); • the plate was centrifuged with a “cover” plate at 500 rpm for 1 min • the plate was pre-incubated for 30 minutes at room temperature with plate covered; • 5 μL of 2×5Fam-[…]-K5Tamra peptide substrate was dispensed into the entire plate, columns 1-24; • the plate was centrifuged with a “cover” plate at 500 rpm for 1 min; • the plate was read monitoring fluorescence intensity on the BMG PHERAStar at room temperature, using fluorescence module 485 nm/520 nm.
# (§1) Percent inhibition (IC50) curves were generated per compound tested, and data was analyzed using a 4-parameter logistic fit using GeneData Screener. The relative fluorescence unit (RFU) values were normalized to percent inhibition using the following equation:
# % inhibition=((HC−LC)−(compound−LC)/(HC−LC))*100 where LC−low control=mean signal of no Factor XIa or 100% inhibition of Factor XIa; HC−high control=mean signal of Factor XIa+5Fam-[…]-K5Tamra peptide substrate with DMSO only.
# (§2) An 11-point dose response curve for the test compound(s) was generated using GENDATA to determine IC50 value based on the following equation:
# Y=Bottom+(Top−Bottom)/(1+10^((log IC50−X)*HillSlope)) where Y is the % inhibition in the presence of X inhibitor concentration, Top=high control=mean signal of Factor XIa+5Fam-[…]-K5Tamra peptide substrate with DMSO only; Bottom=low control−mean signal of no Factor XIa or 100% inhibition of Factor XIa; HillSlope−Hill coefficient; and IC50=concentration of compound with 50% inhibition in relation to top/high control.
# human plasma kallikrein = human plasma kallikrein (Homo sapiens, UniProt P03952); experiment: Kallikrein inhibition assay (FLINT) utilizing a quenched AMC peptide substrate Z-Gly-Pro-Arg-AMC; format: biochemical; settings: kinetic (KIN) reads, read-out: Kallikrein KIN Inh IC50
# Source text: Biological Example 2: Kallikrein Inhibition Assay Utilizing a Quenched AMC Peptide Substrate A fluorescence intensity (FLINT) based assay was used to monitor inhibition of human plasma kallikrein. The peptide substrate, Z-Gly-Pro-Arg-AMC (Purchased from Bachem; Catalog #I-1150) was chosen based on its relatively low KM for kallikrein which enables running the assay at lower substrate concentrations to control background fluorescence.
# The Kallikrein FLINT assay was used with the following Z-Gly-Pro-Arg-AMC assay buffer: 50 mM Tris, pH 7.5, 100 mM NaCl, 5 mM CaCl2, 0.1 mg/mL BSA, 0.03% CHAPS. Assay buffer was prepared by mixing all ingredients fresh. 2× Z-Gly-Pro-Arg-AMC peptide substrate was prepared by diluting 10 mM stock into 1× assay buffer for a 100 μM working concentration (50 μM final concentration). The 2× kallikrein stock solution was prepared by diluting 14.76 μM stock in 1× assay buffer for a 4 nM working stock solution (2 nM final concentration).
# Test compound(s) were run in an 11-point, 3-fold serial dilution with a final top compound concentration of 1 μM. Final DMSO in assay was 2%. Plasma kallikrein was pre-incubated for 30-minute with compound and then 50 μM substrate was added to initiate the reaction. The assay was run with kinetic (KIN) reads at 5 min intervals over 30 minutes. The time course was linear using 2 nM kallikrein greater than 30 minutes. More specifically, the assay was run as follows: • 100 nL of 0.1 mM test compound was dispensed into black 384-well non-binding Greiner BioOne 784900 plate for 1 μM final concentration; • 5 μL of 1× assay buffer was dispensed to columns 24 (low control) and 5 μL 2× human kallikrein enzyme solution was dispensed to columns 1-23 (column 23 high control); • the plate was centrifuged with a “cover” plate at 500 rpm for 1 min • the plate was pre-incubated for 30 minutes at room temperature with plate covered; • 5 μL of 2× Z-Gly-Pro-Arg-AMC peptide substrate was dispensed into the entire plate, columns 1-24; • the plate was centrifuged with a “cover” plate at 500 rpm for 1 min; • the plate was read monitoring fluorescence intensity on the BMG PHERAStar at room temperature, using fluorescence module 340 nm/440 nm.
# as §1
# % inhibition=((HC−LC)−(compound−LC)/(HC−LC))*100 where LC—low control=mean signal of […] or 100% inhibition of human kallikrein enzyme; HC—high control=mean signal of […]+Z-Gly-Pro-Arg-AMC peptide substrate with DMSO only.
# as §2
# Y=Bottom+(Top−Bottom)/(1+10^((log IC50−X)*HillSlope)) where Y is the % inhibition in the presence of X inhibitor concentration, Top=high control=mean signal of human kallikrein enzyme+Z-Gly-Pro-Arg-AMC peptide substrate with DMSO only; Bottom=low control−mean signal of no human kallikrein enzyme or 100% inhibition of human kallikrein enzyme; HillSlope−Hill coefficient; and IC50=concentration of compound with 50% inhibition in relation to top/high control.
# Sequence of Factor XIa (P03951 388-625 limits assumed): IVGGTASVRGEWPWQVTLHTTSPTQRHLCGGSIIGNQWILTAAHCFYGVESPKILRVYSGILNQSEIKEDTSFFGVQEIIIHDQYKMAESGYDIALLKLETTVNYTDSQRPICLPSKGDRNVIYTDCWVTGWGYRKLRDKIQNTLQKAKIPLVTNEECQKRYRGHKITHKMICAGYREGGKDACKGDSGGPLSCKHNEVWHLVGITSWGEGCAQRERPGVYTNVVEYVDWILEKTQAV
# Sequence of Factor XIa (P03951 19-387 partner limits assumed): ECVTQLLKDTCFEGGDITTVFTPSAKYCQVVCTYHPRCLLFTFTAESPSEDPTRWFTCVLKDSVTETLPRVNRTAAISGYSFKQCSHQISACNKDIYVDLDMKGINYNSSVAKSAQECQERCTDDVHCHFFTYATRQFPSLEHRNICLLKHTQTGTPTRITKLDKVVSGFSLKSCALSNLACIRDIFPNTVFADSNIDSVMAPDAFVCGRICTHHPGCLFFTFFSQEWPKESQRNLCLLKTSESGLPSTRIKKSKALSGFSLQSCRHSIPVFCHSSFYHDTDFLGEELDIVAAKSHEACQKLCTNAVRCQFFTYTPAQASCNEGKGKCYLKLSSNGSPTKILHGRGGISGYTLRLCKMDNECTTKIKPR
# Sequence of human plasma kallikrein (P03952 391-638 limits assumed): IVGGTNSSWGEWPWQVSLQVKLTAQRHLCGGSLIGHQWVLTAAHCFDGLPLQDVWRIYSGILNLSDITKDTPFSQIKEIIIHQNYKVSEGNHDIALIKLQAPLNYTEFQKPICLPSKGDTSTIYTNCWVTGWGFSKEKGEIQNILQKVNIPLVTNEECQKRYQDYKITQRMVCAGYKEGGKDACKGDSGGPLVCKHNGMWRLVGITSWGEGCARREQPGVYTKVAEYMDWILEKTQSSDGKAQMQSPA
# Sequence of human plasma kallikrein (P03952 20-390 partner limits assumed): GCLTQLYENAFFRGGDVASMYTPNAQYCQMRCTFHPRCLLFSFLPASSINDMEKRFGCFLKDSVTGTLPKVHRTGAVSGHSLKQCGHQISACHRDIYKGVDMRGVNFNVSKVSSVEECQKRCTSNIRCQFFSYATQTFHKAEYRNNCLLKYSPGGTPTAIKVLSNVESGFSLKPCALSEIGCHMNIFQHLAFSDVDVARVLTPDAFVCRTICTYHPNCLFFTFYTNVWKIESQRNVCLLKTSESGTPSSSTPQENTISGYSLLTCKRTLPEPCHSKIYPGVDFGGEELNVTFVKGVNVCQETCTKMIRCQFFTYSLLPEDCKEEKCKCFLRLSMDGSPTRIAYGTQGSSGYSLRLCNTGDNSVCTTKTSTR
Structure (SMILES),IC50 (Factor XIa),IC50 (human plasma kallikrein; values in nM),IC50 (human plasma kallikrein; unit μM)
"Cc1c(-c2cnc([C@@H]3C[C@H](C)c4cc(-c5c(-n6cnnn6)ccc(Cl)c5F)cc(=O)n43)[nH]2)ccnc1C#N (relative stereo) [Example 33, 4-(2-((1S*,3S*)-7-(3-Chloro-2-fluoro-6-(1H-tetrazol-1-yl)phenyl)-1-methyl-5-oxo-1,2,3,5-tetrahydroindolizin-3-yl)-1H-imidazol-5-yl)-3-methylpicolinonitrile]",6.8 nM,152 nM,
"C[C@H]1C[C@@H](c2nc(-c3ncc(N)nc3Cl)c[nH]2)n2c1nc(-c1c(-n3cnnn3)ccc(Cl)c1F)cc2=O [Example 93, (6S,8S)-6-(4-(5-Amino-3-chloropyrazin-2-yl)-1H-imidazol-2-yl)-2-(3-chloro-2-fluoro-6-(1H-tetrazol-1-yl)phenyl)-8-methyl-7,8-dihydropyrrolo[1,2-a]pyrimidin-4(6H)-one]",0.5 nM,20.8 nM,
"CCO[C@@H]1C[C@@H](c2ncc(-c3ccc(N)nc3F)[nH]2)n2c1cc(-c1c(-n3cnnn3)ccc(Cl)c1F)cc2=O [Example 139, (1R,3S)-3-(5-(6-Amino-2-fluoropyridin-3-yl)-1H-imidazol-2-yl)-7-(3-chloro-2-fluoro-6-(1H-tetrazol-1-yl)phenyl)-1-ethoxy-2,3-dihydroindolizin-5(1H)-one]",0.3 nM,18 nM,
"C[C@H]1C[C@@H](c2ncc(-c3ncc(N)nc3F)[nH]2)n2c1nc(-c1c(-n3cnnn3)ccc(Cl)c1F)cc2=O (single isomer, unassigned) [Example 89, (6*S,8S)-6-(5-(5-Amino-3-fluoropyrazin-2-yl)-1H-imidazol-2-yl)-2-(3-chloro-2-fluoro-6-(1H-tetrazol-1-yl)phenyl)-8-methyl-7,8-dihydropyrrolo[1,2-a]pyrimidin-4(6H)-one]",5.1 nM,~45.9 nM,
"CC1CC(c2ncc(-c3ccnc(CO)c3F)[nH]2)n2c1nc(-c1c(-n3cnnn3)ccc(Cl)c1F)cc2=O (single isomer, unassigned) [Example 77, (6S*)-2-(3-Chloro-2-fluoro-6-(1H-tetrazol-1-yl)phenyl)-6-(5-(3-fluoro-2-(hydroxymethyl)pyridin-4-yl)-1H-imidazol-2-yl)-8-methyl-7,8-dihydropyrrolo[1,2-a]pyrimidin-4(6H)-one]",19.6 nM,167 nM,
"O=c1cc(-c2c(-n3cnnn3)ccc(Cl)c2F)cc2n1[C@H](c1ncc(-c3ccnc(CO)c3F)[nH]1)CC21CC1 [Example 7, (S)-7′-(3-Chloro-2-fluoro-6-(1H-tetrazol-1-yl)phenyl)-3′-(5-(3-fluoro-2-(hydroxymethyl)pyridin-4-yl)-1H-imidazol-2-yl)-2′,3′-dihydro-5′H-spiro[cyclopropane-1,1′-indolizin]-5′-one]",6.9 nM,38 nM,
"C[C@H]1C[C@@H](c2ncc(-c3ccnc(F)c3)[nH]2)n2c1cc(-c1c(-n3cnnn3)ccc(Cl)c1F)cc2=O (stereo in doubt) [Example 44, (1*S,3*S)-7-(3-Chloro-2-fluoro-6-(1H-tetrazol-1-yl)phenyl)-3-(5-(2-fluoropyridin-4-yl)-1H-imidazol-2-yl)-1-methyl-2,3-dihydroindolizin-5(1H)-one]",14.9 nM,97.8 nM,
"C[C@H]1C[C@@H](c2ncc(-c3cnc(N)nc3)[nH]2)n2c1nc(-c1c(-n3cnnn3)ccc(Cl)c1F)cc2=O (stereo in doubt) [Example 119, (6*S,8*S)-6-(5-(2-Aminopyrimidin-5-yl)-1H-imidazol-2-yl)-2-(3-chloro-2-fluoro-6-(1H-tetrazol-1-yl)phenyl)-8-methyl-7,8-dihydropyrrolo[1,2-a]pyrimidin-4(6H)-one]",8.7 nM,287 nM,
"C[C@H]1CC(c2ncc(-c3ccnc(CN)c3)[nH]2)n2c1cc(-c1c(-n3cnnn3)ccc(Cl)c1F)cc2=O (stereo in doubt) [Example 39, (1*S,3*S)-3-(5-(2-(Aminomethyl)pyridin-4-yl)-1H-imidazol-2-yl)-7-(3-chloro-2-fluoro-6-(1H-tetrazol-1-yl)phenyl)-1-methyl-2,3-dihydroindolizin-5(1H)-one]",,,> 10000 nM
"O=c1cc(-c2c(-n3cnnn3)ccc(Cl)c2F)nc2n1C(c1ncc(-c3ccnc(C4(O)CC4)c3F)[nH]1)CC21CC1 (single isomer, unassigned) [Example 75, (R*)-2′-(3-Chloro-2-fluoro-6-(1H-tetrazol-1-yl)phenyl)-6′-(5-(3-fluoro-2-(1-hydroxycyclopropyl)pyridin-4-yl)-1H-imidazol-2-yl)-6′,7′-dihydro-4′H-spiro[cyclopropane-1,8′-pyrrolo[1,2-a]pyrimidin]-4′-one]",,97.6 nM,
"C[C@H]1C[C@@H](c2ncc(-c3ccc(N)nc3Cl)[nH]2)n2c1cc(-c1c(-n3cnnn3)ccc(Cl)c1F)cc2=O (relative stereo) [Example 57, (1*S,3*S)-3-(5-(6-Amino-2-chloropyridin-3-yl)-1H-imidazol-2-yl)-7-(3-chloro-2-fluoro-6-(1H-tetrazol-1-yl)phenyl)-1-methyl-2,3-dihydroindolizin-5(1H)-one]",,,3400 nM
"C[C@H]1C[C@@H](c2ncc(-c3ccc(N)nc3Cl)[nH]2)n2c1cc(-c1c(-n3cnnn3)ccc(Cl)c1F)cc2=O [Example 59, (1S,3S)-3-(5-(6-Amino-2-chloropyridin-3-yl)-1H-imidazol-2-yl)-7-(3-chloro-2-fluoro-6-(1H-tetrazol-1-yl)phenyl)-1-methyl-2,3-dihydroindolizin-5(1H)-one]",,11.6 nM,
